# In publication PMC6934184, “Selective DNA-PKcs inhibition extends the therapeutic index of localized radiotherapy and chemotherapy” (The Journal of Clinical Investigation, 2019):
# Molecular target: T1, PDGFRA V561D (Homo sapiens, UniProt P16234, V561D)
# T1 construct: purchased Thermo Fisher Scientific (Life Technologies) SelectScreen
# Test: SelectScreen Z'LYTE
# Assay type: biochemical
# In short: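 SelectScreen broad panel; activity (Z'LYTE, Adapta) plus binding formats. ATP: Km app for CSF1R Z'LYTE; 10 for CAMK1 Adapta. Readout = % per kinase.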
# T1 sequence (P16234 24-1089 V561D): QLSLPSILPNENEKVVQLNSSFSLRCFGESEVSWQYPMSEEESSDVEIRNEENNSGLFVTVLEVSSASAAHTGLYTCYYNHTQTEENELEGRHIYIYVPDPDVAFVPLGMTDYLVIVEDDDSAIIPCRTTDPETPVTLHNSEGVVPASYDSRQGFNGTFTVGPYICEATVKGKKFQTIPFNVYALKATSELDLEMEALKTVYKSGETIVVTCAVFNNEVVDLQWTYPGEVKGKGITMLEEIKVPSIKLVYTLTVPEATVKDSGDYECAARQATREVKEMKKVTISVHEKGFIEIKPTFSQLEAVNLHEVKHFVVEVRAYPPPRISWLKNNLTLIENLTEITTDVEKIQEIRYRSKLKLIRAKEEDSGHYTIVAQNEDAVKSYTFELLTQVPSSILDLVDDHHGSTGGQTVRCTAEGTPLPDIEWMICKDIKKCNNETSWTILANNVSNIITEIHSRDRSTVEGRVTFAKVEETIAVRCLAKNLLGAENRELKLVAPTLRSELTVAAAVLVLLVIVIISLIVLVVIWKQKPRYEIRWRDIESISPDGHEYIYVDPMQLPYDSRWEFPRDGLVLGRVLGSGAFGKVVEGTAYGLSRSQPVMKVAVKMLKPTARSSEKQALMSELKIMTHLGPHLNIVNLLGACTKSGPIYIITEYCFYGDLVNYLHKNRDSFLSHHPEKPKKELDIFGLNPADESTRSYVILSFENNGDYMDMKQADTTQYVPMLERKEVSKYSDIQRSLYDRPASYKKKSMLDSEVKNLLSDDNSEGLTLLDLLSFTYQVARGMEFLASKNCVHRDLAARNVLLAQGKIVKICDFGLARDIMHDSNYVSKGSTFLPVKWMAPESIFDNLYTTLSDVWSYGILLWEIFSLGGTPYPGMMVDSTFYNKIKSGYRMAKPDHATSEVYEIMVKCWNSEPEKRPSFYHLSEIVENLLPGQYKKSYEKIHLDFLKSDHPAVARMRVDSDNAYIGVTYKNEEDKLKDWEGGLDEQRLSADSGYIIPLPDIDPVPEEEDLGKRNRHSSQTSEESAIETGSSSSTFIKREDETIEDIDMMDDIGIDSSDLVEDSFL
smiles,measurement,value
CN(C(=O)CN1CCOCC1)c1ccc2sc3c(-c4cccc5c(=O)cc(N6CC7CCC(C6)O7)oc45)cccc3c2c1 [NU5455],inhibition at 1 µM,-2.3%
